Data taken from ChEMBL document CHEMBL5360603, “Diselenide Covalent Allosteric Inhibitors of Glutaminase with Strong In Vivo Anticancer Activity” (ACS Med Chem Lett, 2023).
Activity calls are given as the source filed them. The rule behind the calls is not given here. Starred links: 1 amine or outer side, 2 acyl side, 3 side chain; linkers in the order of their positions; H or OH if unused. Positions of bridges follow the written chain, without caps; N, C: chain ends. Non-standard residues stand in square brackets, D forms with d. Residues, ends and D or L forms follow the SMILES beside them. Chains are numbered I, II in the order given. Actinocin(9to1) = Cc1c2oc3c(C)ccc(C(=O)[*:1])c3nc-2c(C(=O)[*:2])c(N)c1=O; NMeV = CN[C@H](C(=O)O)C(C)C; Sar = CNCC(=O)O

What was measured:
[1] = biological target: T1, Glutaminase kidney isoform, mitochondrial (Homo sapiens, UniProt O94925); assay: Negative allosteric modulator activity at human wildtype KGA incubated for 5 hrs in presence of GDH and NADP by EZMTT assay
T1 sequence (O94925 whole entry): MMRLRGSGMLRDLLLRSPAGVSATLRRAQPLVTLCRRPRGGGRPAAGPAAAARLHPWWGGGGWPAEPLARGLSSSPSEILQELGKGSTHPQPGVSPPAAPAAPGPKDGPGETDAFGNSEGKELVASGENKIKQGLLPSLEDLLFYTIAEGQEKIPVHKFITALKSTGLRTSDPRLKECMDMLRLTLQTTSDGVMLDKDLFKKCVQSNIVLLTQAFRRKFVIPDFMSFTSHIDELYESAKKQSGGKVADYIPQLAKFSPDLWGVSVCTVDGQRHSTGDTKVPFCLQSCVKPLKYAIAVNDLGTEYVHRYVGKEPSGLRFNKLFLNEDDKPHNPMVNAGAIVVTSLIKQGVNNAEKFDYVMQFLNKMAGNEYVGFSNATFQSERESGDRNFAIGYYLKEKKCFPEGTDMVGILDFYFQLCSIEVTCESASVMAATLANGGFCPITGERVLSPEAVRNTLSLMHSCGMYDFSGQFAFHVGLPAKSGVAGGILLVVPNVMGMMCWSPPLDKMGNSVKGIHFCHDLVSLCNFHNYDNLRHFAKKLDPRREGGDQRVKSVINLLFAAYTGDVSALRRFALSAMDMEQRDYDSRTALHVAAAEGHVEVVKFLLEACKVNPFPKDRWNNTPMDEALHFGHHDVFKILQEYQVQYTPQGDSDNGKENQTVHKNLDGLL

Thioredoxin reductase = Thioredoxin reductase (Escherichia coli (strain K12), UniProt P0A9P4); assay: Negative allosteric modulator activity at Escherichia coli TrxR using DTNB as substrate preincubated for 20 mins followed by substrate addition in presence of NADPH and measured after 60 mins
Chain of Thioredoxin reductase (P0A9P4 whole entry): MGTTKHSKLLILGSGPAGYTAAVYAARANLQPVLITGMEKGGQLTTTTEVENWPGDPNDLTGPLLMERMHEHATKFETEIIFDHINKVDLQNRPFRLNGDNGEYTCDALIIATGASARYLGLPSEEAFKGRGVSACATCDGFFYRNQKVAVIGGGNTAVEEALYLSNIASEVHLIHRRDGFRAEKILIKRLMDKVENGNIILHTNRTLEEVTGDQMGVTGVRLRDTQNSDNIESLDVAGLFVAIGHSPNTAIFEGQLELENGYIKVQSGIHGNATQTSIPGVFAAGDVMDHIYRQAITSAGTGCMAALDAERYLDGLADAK

A549 = assay: Antiproliferative activity against human A549 cells assessed as cell growth inhibition incubated for 5 days by EZMTT assay; format: functional, cell-based; conditions: A549, 120 h
[2] = Negative allosteric modulator activity at Escherichia coli GDH incubated for 1.5 hrs in presence of glutamate and NADP by EZMTT assay
H22 [3] = assay: Antiproliferative activity against mouse H22 cells assessed as cell growth inhibition incubated for 5 days by EZMTT assay; format: functional, cell-based; conditions: H22, 120 h
ACHN = assay: Antiproliferative activity against human ACHN cells assessed as cell growth inhibition incubated for 5 days by EZMTT assay; format: functional, cell-based; conditions: 120 h
HepG2 = assay: Antiproliferative activity against human HepG2 cells assessed as cell growth inhibition incubated for 5 days by EZMTT assay; format: functional, cell-based; conditions: HepG2, 120 h
[4] = Toxicity in ICR mouse xenografted with mouse H22 cells assessed as change in body weight at 30 mg/kg,SC for 10 consecutive days and measured after 32 days; format: organism-based; conditions: in vivo, 768 h, time 32 day
H22 [5] = assay: Antitumor activity against mouse H22 cells xenografted in ICR mouse assessed as increase in survival time at SC administration for 10 consecutive days and measured after 32 days; format: functional; conditions: time 32.0 day
U-251 = assay: Antiproliferative activity against human U-251 cells assessed as cell growth inhibition incubated for 5 days by EZMTT assay; format: functional, cell-based; conditions: U-251, 120 h
[6] = biological target: T1, Glutaminase kidney isoform, mitochondrial; assay: Negative allosteric modulator activity at human wildtype KGA using glutamine as substrate preincubated for 1 hr followed by substrate addition in presence of GDH and NADP and measured after 4 hrs by EZMTT reagent based dilution assay
CAKI-1 = assay: Antiproliferative activity against human CAKI-1 cells assessed as cell growth inhibition incubated for 5 days by EZMTT assay; format: functional, cell-based; conditions: CAKI-1, 120 h
[7] = Negative allosteric modulator activity at human KGA K320A mutant using glutamine as substrate preincubated for 1 hr followed by substrate addition in presence of GDH and NADP and measured after 4 hrs by EZMTT reagent based dilution assay
[8] = Toxicity in ICR mouse xenografted with mouse H22 cells assessed as body weight loss at 10 mg/kg,SC for 10 consecutive days; format: organism-based; conditions: in vivo
H22 [9] = assay: Antitumor activity against mouse H22 cells xenografted in ICR mouse assessed as reduction in tumor size at 10 mg/kg,SC for 10 consecutive days; format: functional; set-up: scale not given: the % may be the effect or the level left
[10] = tested on: KATO III stomach cancer cell line; assay: Antiproliferative activity against human KATO III stomach cancer cell line assessed as cell growth inhibition incubated for 5 days by EZMTT assay; format: functional, cell-based; conditions: 120 h
[11] = Toxicity in ICR mouse xenografted with mouse H22 cells assessed as change in body weight at 10 mg/kg,SC for 10 consecutive days and measured after 32 days; format: organism-based; conditions: in vivo, 768 h, time 32 day
HGC-27 = assay: Antiproliferative activity against human HGC-27 cells assessed as cell growth inhibition incubated for 5 days by EZMTT assay; format: functional, cell-based; conditions: HGC-27, 120 h
H22 [12] = assay: Antitumor activity against mouse H22 cells xenografted in ICR mouse assessed as tumor growth inhibition at 0.25 mg/kg,SC for 10 consecutive days; format: functional, organism-based
[13] = Toxicity in ICR mouse xenografted with mouse H22 cells assessed as body weight loss at 0.25 mg/kg,SC for 10 consecutive days; format: organism-based; conditions: in vivo
Homo sapiens [14] = organism: Homo sapiens; assay: Binding affinity to human biotinylated KGA K320A mutant at 1 to 10 uM by biolayer interferometry assay; conditions: dose 1-10 µM
H22 [15] = assay: Antitumor activity against mouse H22 cells xenografted in ICR mouse assessed as increase in survival time at 10 mg/kg,SC administration for 10 consecutive days and measured after 32 days; format: functional, organism-based; conditions: time 32.0 day
[16] = biological target: T2, Glutaminase kidney isoform, mitochondrial (Homo sapiens) (UniProt O94925); assay: Binding affinity to human biotinylated wildtype KGA at 0.01 to 1 uM by biolayer interferometry assay; conditions: filed as negative allosteric modulator, dose 0.01-1 µM
T2 sequence (whole entry): T1 sequence (O94925 whole entry)

[17] = Toxicity in ICR mouse xenografted with mouse H22 cells assessed as change in body weight at 1 to 10 mg/kg,SC for 10 consecutive days and measured after 32 days; format: organism-based; conditions: in vivo, 768 h, dose 1-10 mg/kg, time 32 day
Homo sapiens [18] = organism: Homo sapiens; assay: Binding affinity to human biotinylated KGA K320A mutant at 0.01 to 1 uM by biolayer interferometry assay; conditions: dose 0.01-1 µM

Compound | IC50 [1] | IC50 (Thioredoxin reductase) | IC50 (A549) | IC50 [2] | IC50 (H22 [3]) | further results
Cc1cc(C)n(CC[Se][Se]CCn2nc(C)cc2C)n1 | 3.6 µM | 3.7 µM | 1.7 µM | > 10 µM | 2.8 µM | –
O=C1c2ccccc2C(=O)N1CC[Se][Se]CCN1C(=O)c2ccccc2C1=O | 0.4 µM | 0.7 µM | 1.6 µM | > 10 µM | 0.83 µM | IC50 (ACHN): 2.1 µM; IC50 (HepG2): 1.9 µM; Activity [4]: Toxic; Activity (H22 [5]): Dose-Dependent Effect; IC50 (U-251): 1.6 µM; IC50 [6]: 2.1 µM; IC50 (CAKI-1): 3.3 µM; IC50 [7]: > 10 µM; Activity [8]: Non-Toxic; Activity (H22 [9]): ~70%; IC50 [10]: 1.65 µM; Activity [11]: Toxic; IC50 (HGC-27): 1.2 µM
Cc1cc(C)n(CCSSCCn2nc(C)cc2C)n1 | > 10 µM | > 10 µM | > 10 µM | > 10 µM | > 10 µM | –
Cc1nn(CC[Se][Se]CCn2nc(C)c(Cl)c2C)c(C)c1Cl | 0.54 µM | 0.7 µM | 3 µM | > 10 µM | 4 µM | –
Nc1nnc(CCCCCCc2nnc(N)s2)s1 | > 10 µM | > 10 µM | > 10 µM | > 10 µM | > 10 µM | –
CCCCCCCC[Se][Se]CCCCCCCC | > 10 µM | > 10 µM | > 10 µM | > 10 µM | > 10 µM | –
O=C1c2ccccc2C(=O)N1CCSSCCN1C(=O)c2ccccc2C1=O | > 10 µM | > 10 µM | > 10 µM | > 10 µM | > 10 µM | –
Cc1nn(CCC[Se]CCn2nc(C)c(Cl)c2C)c(C)c1Cl | > 10 µM | > 10 µM | > 10 µM | > 10 µM | 8 µM | –
Cc1c2oc3c(C)ccc(C(=O)N[C@@H]4C(=O)N[C@H](C(C)C)C(=O)N5CCC[C@H]5C(=O)N(C)CC(=O)N(C)[C@@H](C(C)C)C(=O)O[C@@H]4C)c3nc-2c(C(=O)N[C@@H]2C(=O)N[C@H](C(C)C)C(=O)N3CCC[C@H]3C(=O)N(C)CC(=O)N(C)[C@@H](C(C)C)C(=O)O[C@@H]2C)c(N)c1=O [DACTINOMYCIN] (I: T[dV]P[Sar][NMeV] / II: T[dV]P[Sar][NMeV]; ester I:1-I:C, II:1-II:C; linker I:N-II:N via Actinocin(9to1)) | – | – | – | – | – | Activity (H22 [12]): Active; Activity [13]: Toxic
Nc1nnc(CC[Se][Se]CCc2nnc(N)[se]2)[se]1 | 3 µM | 4 µM | 8 µM | > 10 µM | 2.6 µM | –
O=C(Cc1cccc(OC(F)(F)F)c1)Nc1ccc(CCCCc2nnc(NC(=O)Cc3ccccn3)s2)nn1 | – | > 10 µM | – | > 10 µM | > 10 µM | Activity (Homo sapiens [14]): inactive; IC50 [7]: 0.3 µM; Activity (H22 [15]): inactive
Nc1nnc(CCCCCCc2nnc(N)[se]2)[se]1 | > 10 µM | > 10 µM | > 10 µM | > 10 µM | > 10 µM | –
Cc1nn(CCCCCCn2nc(C)c(Cl)c2C)c(C)c1Cl | > 10 µM | > 10 µM | > 10 µM | > 10 µM | > 10 µM | –
O=c1[nH]n(CC[Se][Se]CCn2[nH]c(=O)c3ccccc3c2=O)c(=O)c2ccccc12 | 1 µM | 2.1 µM | > 10 µM | > 10 µM | > 10 µM | –
O=[N+]([O-])c1ccc2c(cnn2CC[Se][Se]CCn2ncc3cc([N+](=O)[O-])ccc32)c1 | 0.4 µM | 0.7 µM | 0.4 µM | > 10 µM | 8 µM | –
Nc1nnc(CC[Se][Se]CCc2nnc(N)s2)s1 | 4 µM | 3 µM | 9 µM | > 10 µM | 2.6 µM | –
Cc1nn(CCSSCCn2nc(C)c(Cl)c2C)c(C)c1Cl | > 10 µM | > 10 µM | > 10 µM | > 10 µM | > 10 µM | –
Cc1nn(CC[Se][Se]CCn2nc(C)c3ccccc32)c2ccccc12 | 0.2 µM | 0.5 µM | 0.75 µM | > 10 µM | 3.5 µM | Activity (H22 [5]): Dose-Dependent Effect; IC50 [6]: 2.2 µM; IC50 [7]: > 10 µM; Activity [8]: Non-Toxic; Activity [16]: Active; Activity (H22 [9]): ~70%; Activity [17]: Toxic; Activity (Homo sapiens [18]): inactive
c1ccc(CC[Se][Se]CCc2ccccc2)cc1 | > 10 µM | 13 µM | > 10 µM | > 10 µM | 5.6 µM | –
